Experimental data from ChEMBL document CHEMBL1153022, “Pyrrolidinoindoline alkaloids from Selaginella moellendorfii” (J Nat Prod, 2009).
pIC50: −log10 of the molar value. Active and inactive are the calls of the source. The calls are words filed in the database; no cut-off is given here.

Tests used:
Escherichia coli = test: Antibacterial activity against Escherichia coli up to 200 ug/ml by microdilution assay; assay type: functional, organism-based
Staphylococcus aureus = test: Antibacterial activity against Staphylococcus aureus up to 200 ug/ml by microdilution assay; assay type: functional, organism-based
K562 [1] = test: Cytotoxicity against human K562 cells up to 200 ug/ml by MTT assay; assay type: functional, cell-based
A549 [2] = test: Cytotoxicity against human A549 cells up to 200 ug/ml by SRB method; assay type: functional, cell-based
[3] = molecular target: Acetylcholinesterase (Homo sapiens) (UniProt P22303); test: Inhibition of human AChE up to 200 ug/ml by Ellman's assay
Sequence of Acetylcholinesterase (Homo sapiens) (P22303 whole entry): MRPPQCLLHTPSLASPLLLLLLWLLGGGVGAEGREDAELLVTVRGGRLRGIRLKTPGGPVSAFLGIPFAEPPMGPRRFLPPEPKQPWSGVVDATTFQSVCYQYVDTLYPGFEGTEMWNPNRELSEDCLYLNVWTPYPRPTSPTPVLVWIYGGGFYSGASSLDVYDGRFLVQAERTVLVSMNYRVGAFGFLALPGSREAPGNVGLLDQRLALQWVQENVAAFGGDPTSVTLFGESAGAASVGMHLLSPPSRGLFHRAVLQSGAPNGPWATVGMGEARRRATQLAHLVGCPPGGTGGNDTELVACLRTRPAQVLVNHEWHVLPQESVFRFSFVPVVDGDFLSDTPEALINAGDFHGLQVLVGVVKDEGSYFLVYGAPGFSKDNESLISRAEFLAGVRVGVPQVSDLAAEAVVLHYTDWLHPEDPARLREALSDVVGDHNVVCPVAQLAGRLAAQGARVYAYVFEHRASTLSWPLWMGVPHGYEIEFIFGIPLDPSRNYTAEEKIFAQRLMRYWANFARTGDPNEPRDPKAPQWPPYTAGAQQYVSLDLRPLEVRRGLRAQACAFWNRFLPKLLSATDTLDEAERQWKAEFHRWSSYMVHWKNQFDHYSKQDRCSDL

A549 [4] = test: cells; details: Homo sapiens
Description: Cytotoxicity against human A549 cells by SRB method

K562 [5] = test: cells; details: Homo sapiens
Description: Cytotoxicity against human K562 cells by MTT assay

| Structure (SMILES) | Activity (Escherichia coli) | Activity (Staphylococcus aureus) | Activity (K562 [1]) | Activity (A549 [2]) | Activity [3] | pIC50 (A549 [4]) | pIC50 (K562 [5]) |
| --- | --- | --- | --- | --- | --- | --- | --- |
| C/C(=C\C[C@@]12CCN(C)[C@@H]1[N+](C)(C)c1ccccc12)C(=O)N[C@@H](Cc1ccccc1)C(=O)[O-] | inactive | inactive | inactive | inactive | inactive | – | – |
| O=c1[nH]cc(F)c(=O)[nH]1 [FLUOROURACIL] | – | – | – | – | – | 4.68 | – |
| COc1cccc2c1C(=O)c1c(O)c3c(c(O)c1C2=O)C[C@@](O)(C(=O)CO)C[C@@H]3O[C@H]1C[C@H](N)[C@H](O)[C@H](C)O1 [DOXORUBICIN] | – | – | – | – | – | – | 6.49 |
| C/C(=C\C[C@@]1(c2ccccc2N(C)C)CCN(C)C1=O)C(=O)O | inactive | inactive | inactive | inactive | inactive | – | – |
| C/C(=C\C[C@@]12CCN(C)[C@@H]1[N+](C)(C)c1ccccc12)C(=O)[O-] | inactive | inactive | inactive | inactive | inactive | – | – |
